Measurements published in patent publication US20020177621A1, “Antifungal fragrance composition” (priority 2000, published 2002).
“And” between values parts separate entries of the source, which are not always exact repeats. Identical values can stand only once. “Also recorded” adds a separate entry of the source.

How the values were obtained:
Assay type in all cases: cell-based
An-1 (Aspergillus niger) = assay: Confirmation of synergistic action of two fragrances (vapor, paper disc); settings: for IZ (diameter of growth inhibition zone) / Growth (growth status outside the inhibition zone) / SI (diameter of spore formation inhibition zone): 72 hours at 27° C.; for IZ (diameter of growth inhibition zone): sample amount on disc: citral 2 μl, benzaldehyde 10 μl, dimethyl tetrahydrobenzaldehyde 20 μl, geraniol 10 μl, octyl aldehyde 20 μl, 9-decen-1-ol 0.5 μl, trans-2-undecenal 3 μl, phenylacetaldehyde 5 μl, A + B = both amounts on one disc; for Growth (growth status outside the inhibition zone): sample amounts as in Table 3 (citral 2 μl, benzaldehyde 10 μl, dimethyl tetrahydrobenzaldehyde 20 μl, geraniol 10 μl, octyl aldehyde 20 μl, 9-decen-1-ol 0.5 μl, trans-2-undecenal 3 μl, phenylacetaldehyde 5 μl; A + B = both); for SI (diameter of spore formation inhibition zone): sample amounts as in Table 3 (citral 2 μl, benzaldehyde 10 μl, dimethyl tetrahydrobenzaldehyde 20 μl, geraniol 10 μl, octyl aldehyde 20 μl, trans-2-undecenal 3 μl, phenylacetaldehyde 5 μl; A + B = both); for Synergistic effect: second fragrance that shows synergistic action with the fragrance component / Additive effect: second fragrance that shows additive action with the fragrance component / Antagonistic effect: second fragrance that shows antagonistic action with the fragrance component: value = combination partner; for Synergistic effect: second fragrance that shows synergistic action with the fragrance component: combined IZ 20 mm or more larger than sum of single IZ; for Additive effect: second fragrance that shows additive action with the fragrance component: combined IZ intermediate; for Antagonistic effect: second fragrance that shows antagonistic action with the fragrance component: combined IZ 20 mm or more smaller than sum of single IZ
Description: An agar plate prepared according to the method of Example 1 was used while using An-1 (Aspergillus niger) for the test fungi. […] 10 μl of the ethanol containing the Table 3 prescribed amount of the fragrance was impregnated into a paper disc. The test agar plate was placed inversely, and the paper disc impregnated with each fragrance alone and a paper disc simultaneously impregnated with two types of fragrances were placed in the center of the cover, followed by incubating for 72 hours at 27° C. and measuring the diameters of the resulting growth inhibition zones.
The results obtained as in Example 2 with other combinations are shown in Tables 4 through 7 as combination examples of respective synergistic, additive and antagonistic actions for each fragrant chemical product (a). […] It should be noted that in order to make the table smaller, combinations that have already been listed once are not listed in other columns of the tables.

[1] = test system: Cladosporium cladosporioides IFO 6348 (Cc-1); assay: Fragrant vapor antifungal activity (impregnated paper disc on cover of inverted agar plate); settings: 72 hours at 27° C.; for IZ: Diameter of growth inhibition zone: 20 μl fragrance (or 40 μl of 50% ethanol solution) on disc, >85 = growth inhibited over entire plate; for Growth: Growth status outside the inhibition zone: 20 μl fragrance on disc, compared with control
Description: (§1) Physiological saline containing 0.05% Tween-80 was added to a slant on which the test organism grew well, and a spore suspension was produced at 1×10^6 CFU (Colony Forming Units)/ml in accordance with ordinary methods. Potato dextrose agar (PDA: Nissui Pharmaceutical) was used for the medium. To begin with, 10 ml of sterile PDA was pipetted into a Petri dish and after it solidified, another 6 ml of PDA containing 1% of the above described spore suspension was overlaid and solidified to prepare the test agar plate. For the fragrance sample, if the sample is in the form of liquid at ordinary temperatures, 20 μl of liquid was directly impregnated into a paper disc (Advantech, diameter: 8 mm, thick material), while a 50% by weight ethanol solution was prepared for crystals or powder, and 40 μl of that solution was then impregnated into the paper disc.
(§2) The test agar plate was placed inversely, and the paper disc impregnated with the fragrance sample was placed in the center of the cover of the agar plate, followed by incubating for 72 hours at 27° C. Evaluation was made based on the diameter (mm) of the mold growth inhibition zone. When mold growth was inhibited over the entire surface of the agar plate, the diameter of the growth inhibition zone was reported as >85 mm. At locations where mold grew outside the inhibition zone, the diameter of the spore formation inhibition zone and the degree of growth were recorded by comparing with a control. The molds used in the test are shown in Table 1, wherein these molds consist of mold species that are isolated at high frequencies from rooms and bath rooms.
(§3) The amount of blended fragrance added to the paper discs was 20 μl each, and only the diameter of the inhibition zone (mm) is indicated for the results.

[2] = test system: Aspergillus niger IFO 9455 (An-1); assay: as above; settings: 72 hours at 27° C.; for IZ: Diameter of growth inhibition zone: 20 μl fragrance (or 40 μl of 50% ethanol solution) on disc, >85 = growth inhibited over entire plate; for Growth: Growth status outside the inhibition zone / SI: Diameter of spore formation inhibition zone: 20 μl fragrance on disc; for Growth: Growth status outside the inhibition zone: compared with control
Description: as §1, §2, §3

[3] = test system: Aureobasidium pullulans IFO 6353 (Ap-1); assay: as above; settings: 72 hours at 27° C.; for IZ: Diameter of growth inhibition zone: 20 μl fragrance (or 40 μl of 50% ethanol solution) on disc, >85 = growth inhibited over entire plate; for Growth: Growth status outside the inhibition zone / SI: Diameter of spore formation inhibition zone: 20 μl fragrance on disc; for Growth: Growth status outside the inhibition zone: compared with control
Description: as §1, §2, §3

Row | SMILES | IZ (diameter of growth inhibition zone) (An-1 (Aspergillus niger)) [mm] | Growth (growth status outside the inhibition zone) (An-1 (Aspergillus niger)) | SI (diameter of spore formation inhibition zone) (An-1 (Aspergillus niger)) [mm] | Synergistic effect: second fragrance that shows synergistic action with the fragrance component (An-1 (Aspergillus niger)) | Additive effect: second fragrance that shows additive action with the fragrance component (An-1 (Aspergillus niger)) | IZ: Diameter of growth inhibition zone [1] [mm] | Growth: Growth status outside the inhibition zone [1] | IZ: Diameter of growth inhibition zone [2] [mm] | Growth: Growth status outside the inhibition zone [2] | IZ: Diameter of growth inhibition zone [3] [mm] | Growth: Growth status outside the inhibition zone [3] | Antagonistic effect: second fragrance that shows antagonistic action with the fragrance component (An-1 (Aspergillus niger)) | SI: Diameter of spore formation inhibition zone [2] [mm] | SI: Diameter of spore formation inhibition zone [3] [mm]
1 | CC1=CC(C)C(C=O)CC1 (stereo not shown) [Dimethyl tetrahydrobenzaldehyde, dimethyl tetrahydrobenzaldehyde] | 0 | weak | >85 | Cumin aldehyde; also recorded: Geraniol | Thymol, and 1-Decanol | >85 | sparse | 0 | weak | >85 | sparse |  |  | 
2 | C=CCc1ccc(O)c(OC)c1 [Eugenol] |  |  |  |  | Thymol | 70 | weak | 40 | good | 40 | good | Phenylacetaldehyde,; also recorded: Anisaldehyde, | 60 | 60
3 | CCCCCCCCCCO [Example 1-Decanol, 1-Decanol] |  |  |  |  | Thymol and 1-Nonanal and Methyl salicylate, and Phenylacetaldehyde, and Eugenol | 60 | weak | 80 | weak | 40 | slight |  |  | 
4 | C=CCCCCCCCCO [Example 9-Decen-1-ol, 9-Decen-1-ol] | 0 | weak |  | 1-Decanol | Thymol | >85 | none | >85 | none | 65 | weak |  |  | 
5 | O=Cc1ccco1 [Furfural] |  |  |  | Citronellal; also recorded: hexenal, Octyl aldehyde,; also recorded: Trans-2-undecenal,; also recorded: Cumin aldehyde,; also recorded: Geraniol; also recorded: Citronellol; also recorded: Thymol |  | >85 | none | >85 | none | >85 | none |  |  | 
6 | CC(C)=CCC/C(C)=C/CO [Geraniol] | 30 | weak | 45 | 1-Nonanal | Thymol, | 70 | weak | 45 | good | 30 | good | Citronellol,; also recorded: Eugenol | 65 | 45
7 | CCCCCCCC=O [Octyl aldehyde] | 10 | weak | 35 | Cumin aldehyde | 1-Decanol and Thymol, and Anisaldehyde, and Geraniol, | >85 | none | 10 | weak | >85 | none | Citronellol | >85 | 
8 | O=Cc1ccccc1O [Salicylic aldehyde] |  |  |  | Cumin aldehyde and Thymol and 1-Decanol and Citronellol |  | >85 | none | >85 | none | >85 | none |  |  | 
9 | CCC/C=C/C=O [Trans-2-hexenal] |  |  |  |  | Citral DMA, and 1-Nonanal, and 9-Decen-1-ol | >85 | none | >85 | none | >85 | none |  |  | 
10 | CCCCCCCC/C=C/C=O [Trans-2-undecenal] | 30 | slight | >85 | Citral DMA; also recorded: Citral DEA; also recorded: Cumin aldehyde; also recorded: Geraniol; also recorded: Citronellol |  | >85 | none | >85 | none | >85 | none | Eugenol |  | 
